From patent US20230019491A1, “PYRIMIDINE TBK/IKKe INHIBITOR COMPOUNDS AND USES THEREOF” (Merck Patent GmbH, priority 2017, published 2023)
Where a name gives a salt, the structure may show the parent alone.

What was measured:
IKKε = target: T1, IKKε (Homo sapiens, UniProt Q14164); assay: IKKε biochemical assay; details: 10 point 1:4 dose response, 30 uM top concentration, 90 min at 25° C., LabChip EZ Reader II; read-out: IKKε_IC50
T1 sequence (Q14164 1-716): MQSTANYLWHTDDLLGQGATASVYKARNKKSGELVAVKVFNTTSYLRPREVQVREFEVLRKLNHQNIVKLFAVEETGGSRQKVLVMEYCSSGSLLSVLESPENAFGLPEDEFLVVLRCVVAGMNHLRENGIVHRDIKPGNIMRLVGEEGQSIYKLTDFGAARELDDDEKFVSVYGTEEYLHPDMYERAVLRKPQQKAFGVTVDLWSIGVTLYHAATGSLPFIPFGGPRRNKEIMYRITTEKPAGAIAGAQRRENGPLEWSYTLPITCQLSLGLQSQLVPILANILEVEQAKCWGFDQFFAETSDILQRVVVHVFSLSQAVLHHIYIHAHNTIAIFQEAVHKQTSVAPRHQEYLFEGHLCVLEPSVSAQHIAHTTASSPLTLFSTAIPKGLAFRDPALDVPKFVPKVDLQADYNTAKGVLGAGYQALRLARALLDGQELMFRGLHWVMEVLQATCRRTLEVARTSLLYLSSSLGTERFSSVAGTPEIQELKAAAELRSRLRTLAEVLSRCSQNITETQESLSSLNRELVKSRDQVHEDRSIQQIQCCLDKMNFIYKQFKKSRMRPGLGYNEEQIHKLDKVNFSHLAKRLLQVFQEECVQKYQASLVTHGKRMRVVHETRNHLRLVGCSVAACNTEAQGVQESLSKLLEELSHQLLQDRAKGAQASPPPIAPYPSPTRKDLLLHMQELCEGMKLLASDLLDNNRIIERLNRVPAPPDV
Summary of the method: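 Mobility-shift LabChip read-out followed a 90 min, 25° C. reaction of IKKε with substrate and test compound, with DMSO held at 1% final. Reactions were ended with stop buffer. Wells with 10 uM final staurosporine defined complete inhibition, and DMSO-only wells the uninhibited level.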

TBK1 = target: T2, TBK1 (Homo sapiens, UniProt Q9UHD2); assay: TBK biochemical assay; details: 10 point 1:4 dose response, 30 uM top concentration, 90 min at 25° C., LabChip EZ Reader II; read-out: TBK1_IC50
T2 sequence (Q9UHD2 1-729): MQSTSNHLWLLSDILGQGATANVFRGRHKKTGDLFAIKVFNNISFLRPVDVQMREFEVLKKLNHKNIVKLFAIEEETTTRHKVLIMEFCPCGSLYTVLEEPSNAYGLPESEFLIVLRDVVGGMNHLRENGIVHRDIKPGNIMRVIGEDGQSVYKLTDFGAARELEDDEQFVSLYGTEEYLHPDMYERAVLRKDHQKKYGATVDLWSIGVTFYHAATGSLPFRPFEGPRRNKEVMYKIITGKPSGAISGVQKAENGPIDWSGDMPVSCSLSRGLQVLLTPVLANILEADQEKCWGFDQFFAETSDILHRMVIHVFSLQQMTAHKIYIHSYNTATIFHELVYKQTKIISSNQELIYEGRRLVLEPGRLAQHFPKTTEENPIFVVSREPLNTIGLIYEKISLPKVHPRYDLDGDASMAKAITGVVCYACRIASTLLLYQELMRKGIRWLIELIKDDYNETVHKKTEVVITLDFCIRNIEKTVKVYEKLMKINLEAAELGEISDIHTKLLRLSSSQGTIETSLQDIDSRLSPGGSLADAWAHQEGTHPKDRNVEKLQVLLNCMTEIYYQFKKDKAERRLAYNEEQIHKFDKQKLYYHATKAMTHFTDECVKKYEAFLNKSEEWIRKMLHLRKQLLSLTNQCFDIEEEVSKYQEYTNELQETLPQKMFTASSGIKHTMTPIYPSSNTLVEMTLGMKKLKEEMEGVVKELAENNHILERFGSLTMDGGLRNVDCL
Summary of the method: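 Read-out was a Caliper LabChip mobility-shift assay, run after a 90-min, 25 °C reaction of TBK1 with substrate and compounds, quenched with stop buffer. Control wells received staurosporine at 10 uM final.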

| SMILES | IC50 (IKKε) [nM] | IC50 (TBK1) [nM] |
| --- | --- | --- |
| COc1nc(Nc2nccc(-c3ccc(OC4CCN(C(=O)c5cocn5)CC4)c(C#N)c3)n2)ccc1C(=O)N(C)C [Example 77, 6-([4-[3-cyano-4-([1-[(1,3-oxazol-4-yl)carbonyl]piperidin-4-yl]oxy)phenyl]pyrimidin-2-yl]amino)-2-methoxy-N,N-dimethylpyridine-3-carboxamide] | < 100 | < 100 |
| COc1nc(Nc2nccc(-c3ccc(OC4CCN(C(=O)c5n[nH]c(C)n5)CC4)c(C#N)c3)n2)ccc1C(=O)N(C)C [Example 78, 6-([4-[3-cyano-4-([1-[(5-methyl-1H-1,2,4-triazol-3-yl)carbonyl]piperidin-4-yl]oxy)phenyl]pyrimidin-2-yl]amino)-2-methoxy-N,N-dimethylpyridine-3-carboxamide] | < 100 | < 100 |
| COc1nc(Nc2nccc(-c3ccc(OC4CCN(C(=O)c5cnco5)CC4)c(C#N)c3)n2)ccc1C(=O)N(C)C [Example 79, 6-([4-[3-cyano-4-([1-[(1,3-oxazol-5-yl)carbonyl]piperidin-4-yl]oxy)phenyl]pyrimidin-2-yl]amino)-2-methoxy-N,N-dimethylpyridine-3-carboxamide] | < 100 | < 100 |
| CN1CCN(c2ccc(Nc3nccc(-c4ccc(OC5CCN(C)C5)c(C#N)c4)n3)nc2)CC1 (stereo not drawn) [Example 82, 5-(2-[[5-(4-methylpiperazin-1-yl)pyridin-2-yl]amino]pyrimidin-4-yl)-2-[(1-methylpyrrolidin-3-yl)oxy]benzonitrile hydrochloride] | 1000 to 5000 | > 5000 |
| CN1CCN(c2ccc(Nc3nccc(-c4ccc(OC5CCN(C)CC5(F)F)c(C#N)c4)n3)nc2)CC1 (stereo not drawn) [Example 85, 2-[(3,3-difluoro-1-methylpiperidin-4-yl)oxy]-5-(2-[[5-(4-methylpiperazin-1-yl)pyridin-2-yl]amino]pyrimidin-4-yl)benzonitrile] | 100 to 1000 | 100 to 1000 |
| COc1nc(Nc2nccc(-c3ccc(OC4CN(C)C4)c(C#N)c3)n2)ccc1N1CCN(C)CC1 [Example 86, 5-(2-[[6-methoxy-5-(4-methylpiperazin-1-yl)pyridin-2-yl]amino]pyrimidin-4-yl)-2-[(1-methylazetidin-3-yl)oxy]benzonitrile] | 100 to 1000 | 100 to 1000 |
| COc1nc(Nc2nccc(-c3ccc(OC4CCN(C(=O)c5cnco5)CC4)c(C#N)c3)n2)ccc1N1CCN(C)CC1 [Example 92, 5-(2-[[6-methoxy-5-(4-methylpiperazin-1-yl)pyridin-2-yl]amino]pyrimidin-4-yl)-2-([1-[(1,3-oxazol-5-yl)carbonyl]piperidin-4-yl]oxy)benzonitrile] | < 100 | < 100 |
| COc1nc(Nc2nccc(-c3ccc(OC4CCN(C(=O)c5n[nH]c(C)n5)CC4)c(C#N)c3)n2)ccc1N1CCN(C)CC1 [Example 94, 5-(2-[[6-methoxy-5-(4-methylpiperazin-1-yl)pyridin-2-yl]amino]pyrimidin-4-yl)-2-([1-[(5-methyl-1H-1,2,4-triazol-3-yl)carbonyl]piperidin-4-yl]oxy)benzonitrile] | < 100 | < 100 |
| COc1nc(Nc2nccc(-c3ccc(OC4CCNCC4(F)F)c(C#N)c3)n2)ccc1N1CCN(C)CC1 (stereo not drawn) [Example 97, 2-[(3,3-difluoropiperidin-4-yl)oxy]-5-(2-[[6-methoxy-5-(4-methylpiperazin-1-yl)pyridin-2-yl]amino]pyrimidin-4-yl)benzonitrile] | < 100 | < 100 |

Further lines, results first:

| IC50 (IKKε) [nM] | IC50 (TBK1) [nM] | SMILES |
| --- | --- | --- |
| 1000 to 5000 | 1000 to 5000 | CN1CCN(c2ccc(Nc3nccc(-c4ccc(OC5CN(C)C5)c(C#N)c4)n3)nc2)CC1 [Example 81, 2-[(1-methylazetidin-3-yl)oxy]-5-(2-[[5-(4-methylpiperazin-1-yl)pyridin-2-yl]amino]pyrimidin-4-yl)benzonitrile] |
| 1000 to 5000 | > 5000 | CN1CCC(Oc2ccc(-c3ccnc(Nc4ccc(N5CCN(C)CC5)cn4)n3)cc2C#N)CC1 [Example 83, 5-(2-[[5-(4-methylpiperazin-1-yl)pyridin-2-yl]amino]pyrimidin-4-yl)-2-[(1-methylpiperidin-4-yl)oxy]benzonitrile] |
| < 100 | 100 to 1000 | CN1CCN(c2ccc(Nc3nccc(-c4ccc(O[C@H]5CCN(C)C[C@H]5F)c(C#N)c4)n3)nc2)CC1 [Example 84, 2-[[(3R,4S)-3-fluoro-1-methylpiperidin-4-yl]oxy]-5-(2-[[5-(4-methylpiperazin-1-yl)pyridin-2-yl]amino]pyrimidin-4-yl)benzonitrile] |
| < 100 | < 100 | COc1nc(Nc2nccc(-c3ccc(OC4CCN(C)C4)c(C#N)c3)n2)ccc1N1CCN(C)CC1 (stereo not drawn) [Example 87, 5-(2-[[6-methoxy-5-(4-methylpiperazin-1-yl)pyridin-2-yl]amino]pyrimidin-4-yl)-2-[(1-methylpyrrolidin-3-yl)oxy]benzonitrile] |
| 100 to 1000 | 100 to 1000 | COc1nc(Nc2nccc(-c3ccc(OC4CCN(C)CC4)c(C#N)c3)n2)ccc1N1CCN(C)CC1 [Example 88, 5-(2-[[6-methoxy-5-(4-methylpiperazin-1-yl)pyridin-2-yl]amino]pyrimidin-4-yl)-2-[(1-methylpiperidin-4-yl)oxy]benzonitrile] |
| < 100 | < 100 | COc1nc(Nc2nccc(-c3ccc(OC4CCNCC4)c(C#N)c3)n2)ccc1N1CCN(C)CC1 [Example 89, 5-(2-[[6-methoxy-5-(4-methylpiperazin-1-yl)pyridin-2-yl]amino]pyrimidin-4-yl)-2-(piperidin-4-yloxy)benzonitrile] |
| < 100 | < 100 | COc1nc(Nc2nccc(-c3ccc(OC4CCN(C(=O)CO)CC4)c(C#N)c3)n2)ccc1N1CCN(C)CC1 [Example 90, 2-[[1-(2-hydroxyacetyl)piperidin-4-yl]oxy]-5-(2-[[6-methoxy-5-(4-methylpiperazin-1-yl)pyridin-2-yl]amino]pyrimidin-4-yl)benzonitrile] |
| < 100 | < 100 | COc1nc(Nc2nccc(-c3ccc(OC4CCN(C(=O)C(C)O)CC4)c(C#N)c3)n2)ccc1N1CCN(C)CC1 (stereo not drawn) [Example 91, 2-[[1-(2-hydroxypropanoyl)piperidin-4-yl]oxy]-5-(2-[[6-methoxy-5-(4-methylpiperazin-1-yl)pyridin-2-yl]amino]pyrimidin-4-yl)benzonitrile hydrochloride] |
| < 100 | < 100 | COc1nc(Nc2nccc(-c3ccc(OC4CCN(C(=O)c5cocn5)CC4)c(C#N)c3)n2)ccc1N1CCN(C)CC1 [Example 93, 5-(2-[[6-methoxy-5-(4-methylpiperazin-1-yl)pyridin-2-yl]amino]pyrimidin-4-yl)-2-([1-[(1,3-oxazol-4-yl)carbonyl]piperidin-4-yl]oxy)benzonitrile] |
| < 100 | < 100 | COc1nc(Nc2nccc(-c3ccc(O[C@H]4CCNC[C@H]4F)c(C#N)c3)n2)ccc1N1CCN(C)CC1 [Example 95] |
| < 100 | < 100 | COc1nc(Nc2nccc(-c3ccc(O[C@H]4CCN(C)C[C@H]4F)c(C#N)c3)n2)ccc1N1CCN(C)CC1 [Example 96, 2-(((3R,4S)-3-fluoro-1-methylpiperidin-4-yl)oxy)-5-(2-((6-methoxy-5-(4-methylpiperazin-1-yl)pyridin-2-yl)amino)pyrimidin-4-yl)benzonitrile] |
| < 100 | < 100 | COc1nc(Nc2nccc(-c3ccc(OC4CCN(C)CC4(F)F)c(C#N)c3)n2)ccc1N1CCN(C)CC1 (stereo not drawn) [Example 98, 2-[(3,3-difluoro-1-methylpiperidin-4-yl)oxy]-5-(2-[[6-methoxy-5-(4-methylpiperazin-1-yl)pyridin-2-yl]amino]pyrimidin-4-yl)benzonitrile] |
